Ki data for 16 molecules are collected here from patent US10442815B2, “Tricyclic heterocyclic compounds as phosphoinositide 3-kinase inhibitors” (Karus Therapeutics Limited, priority 2015, dated 2019).

pKi: −log10 of the molar value.

Usually pKi stands for the Ki on a negative log10 scale, so that one unit is a factor of ten. A lower pKi goes with a high Ki.

Experiment in all cases: Ki determination, non-radiometric ADP-Glo assay (Proqinase GmbH)
Holding throughout (assay type): biochemical

In one experiment the target is T1, PI3K p110β (Homo sapiens, UniProt P42338).
T1 construct: assay run at Proqinase GmbH
T1 sequence (P42338 whole entry): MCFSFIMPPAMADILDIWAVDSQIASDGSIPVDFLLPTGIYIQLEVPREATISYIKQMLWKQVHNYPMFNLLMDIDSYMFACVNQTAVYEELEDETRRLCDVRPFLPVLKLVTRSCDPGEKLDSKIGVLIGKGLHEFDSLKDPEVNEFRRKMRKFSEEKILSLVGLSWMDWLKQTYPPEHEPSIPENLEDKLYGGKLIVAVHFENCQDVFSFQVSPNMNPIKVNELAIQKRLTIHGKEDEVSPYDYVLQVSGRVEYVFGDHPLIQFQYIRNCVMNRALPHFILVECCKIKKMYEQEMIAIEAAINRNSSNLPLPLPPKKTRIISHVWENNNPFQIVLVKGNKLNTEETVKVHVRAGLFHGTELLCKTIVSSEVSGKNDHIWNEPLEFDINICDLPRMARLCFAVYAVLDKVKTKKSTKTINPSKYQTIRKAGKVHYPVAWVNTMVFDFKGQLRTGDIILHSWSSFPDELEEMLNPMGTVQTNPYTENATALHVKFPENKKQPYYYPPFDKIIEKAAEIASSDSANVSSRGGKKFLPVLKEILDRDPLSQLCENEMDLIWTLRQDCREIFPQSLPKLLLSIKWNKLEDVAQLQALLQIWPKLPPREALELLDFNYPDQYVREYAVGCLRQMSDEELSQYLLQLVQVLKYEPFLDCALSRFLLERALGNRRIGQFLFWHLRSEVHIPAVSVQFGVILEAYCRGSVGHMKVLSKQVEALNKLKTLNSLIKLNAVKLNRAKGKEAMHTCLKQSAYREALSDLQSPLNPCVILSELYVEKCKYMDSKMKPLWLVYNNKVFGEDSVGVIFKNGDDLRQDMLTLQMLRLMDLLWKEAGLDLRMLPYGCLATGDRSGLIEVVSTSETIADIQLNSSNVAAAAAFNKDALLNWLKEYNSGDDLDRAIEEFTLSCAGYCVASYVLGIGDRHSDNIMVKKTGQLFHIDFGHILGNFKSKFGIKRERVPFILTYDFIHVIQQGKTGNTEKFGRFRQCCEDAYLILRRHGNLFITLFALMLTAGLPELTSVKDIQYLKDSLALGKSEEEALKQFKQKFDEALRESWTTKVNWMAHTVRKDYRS
T1 sequence (P27986 whole entry partner): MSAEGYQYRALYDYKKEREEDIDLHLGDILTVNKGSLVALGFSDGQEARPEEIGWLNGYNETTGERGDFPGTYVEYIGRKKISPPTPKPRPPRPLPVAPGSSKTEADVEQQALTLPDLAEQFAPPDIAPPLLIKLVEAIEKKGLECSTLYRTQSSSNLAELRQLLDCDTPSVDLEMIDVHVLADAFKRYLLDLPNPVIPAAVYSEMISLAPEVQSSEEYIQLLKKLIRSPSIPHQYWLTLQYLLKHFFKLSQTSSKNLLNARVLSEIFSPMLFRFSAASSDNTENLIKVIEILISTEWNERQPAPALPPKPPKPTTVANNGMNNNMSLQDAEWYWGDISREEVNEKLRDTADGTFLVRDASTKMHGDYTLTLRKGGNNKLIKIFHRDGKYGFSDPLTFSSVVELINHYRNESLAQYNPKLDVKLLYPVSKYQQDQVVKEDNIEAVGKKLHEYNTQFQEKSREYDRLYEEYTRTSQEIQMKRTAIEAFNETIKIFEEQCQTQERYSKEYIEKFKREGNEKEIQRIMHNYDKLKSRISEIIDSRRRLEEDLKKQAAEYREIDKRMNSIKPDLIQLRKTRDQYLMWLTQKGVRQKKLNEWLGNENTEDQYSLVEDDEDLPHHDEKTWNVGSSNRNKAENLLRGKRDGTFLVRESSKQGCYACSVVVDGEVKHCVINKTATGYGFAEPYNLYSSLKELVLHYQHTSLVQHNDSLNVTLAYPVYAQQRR
The text has this:
(§1) Biochemical activity against class I PI3K isoforms was confirmed by either Ki determination using the non-radiometric ADP-Glo™ assay (Promega, Madison, Wis., USA) at Proqinase GmbH, or IC50 determination using the HTRF biochemical assay at Reaction Biology Corp.

In another experiment the target is T2, PI3K p110δ (Homo sapiens, UniProt O00329).
T2 construct: assay run at Proqinase GmbH
T2 sequence (O00329 whole entry): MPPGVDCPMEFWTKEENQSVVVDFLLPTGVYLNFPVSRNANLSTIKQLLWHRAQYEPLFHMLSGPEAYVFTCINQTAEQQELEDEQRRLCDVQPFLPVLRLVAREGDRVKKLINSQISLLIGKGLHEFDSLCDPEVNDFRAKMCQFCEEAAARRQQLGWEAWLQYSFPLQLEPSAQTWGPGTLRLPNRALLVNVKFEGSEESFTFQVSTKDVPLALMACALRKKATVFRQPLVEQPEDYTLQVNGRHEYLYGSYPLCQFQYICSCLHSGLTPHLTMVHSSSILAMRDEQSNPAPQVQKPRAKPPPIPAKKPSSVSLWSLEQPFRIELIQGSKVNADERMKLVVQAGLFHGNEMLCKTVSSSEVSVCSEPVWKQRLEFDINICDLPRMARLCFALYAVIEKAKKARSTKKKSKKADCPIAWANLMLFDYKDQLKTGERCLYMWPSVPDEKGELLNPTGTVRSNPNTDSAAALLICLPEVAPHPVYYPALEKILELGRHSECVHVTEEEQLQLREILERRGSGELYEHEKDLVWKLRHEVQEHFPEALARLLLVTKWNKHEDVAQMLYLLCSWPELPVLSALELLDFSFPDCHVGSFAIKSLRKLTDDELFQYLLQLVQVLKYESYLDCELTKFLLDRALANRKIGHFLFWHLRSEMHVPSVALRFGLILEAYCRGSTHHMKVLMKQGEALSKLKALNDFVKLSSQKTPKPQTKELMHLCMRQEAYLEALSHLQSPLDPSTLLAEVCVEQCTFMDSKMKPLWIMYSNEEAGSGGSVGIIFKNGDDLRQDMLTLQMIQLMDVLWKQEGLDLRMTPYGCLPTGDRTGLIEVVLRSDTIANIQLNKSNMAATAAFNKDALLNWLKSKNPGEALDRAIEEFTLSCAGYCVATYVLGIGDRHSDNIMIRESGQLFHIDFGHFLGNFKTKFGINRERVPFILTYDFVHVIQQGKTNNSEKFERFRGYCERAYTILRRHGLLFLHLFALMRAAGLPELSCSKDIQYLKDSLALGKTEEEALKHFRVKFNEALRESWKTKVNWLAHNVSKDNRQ
T2 sequence (P27986 whole entry partner): as the sequence (P27986 whole entry partner) above
From the text: as §1

Another experiment concerns the target T3, PI3K p110α (Homo sapiens, UniProt P42336).
T3 construct: assay run at Proqinase GmbH
From the text: as §1

The next experiment has as its target T4, PI3K p110γ (Homo sapiens, UniProt P48736).
T4 construct: assay run at Proqinase GmbH
From the text: as §1

T3 sequence (P42336 whole entry): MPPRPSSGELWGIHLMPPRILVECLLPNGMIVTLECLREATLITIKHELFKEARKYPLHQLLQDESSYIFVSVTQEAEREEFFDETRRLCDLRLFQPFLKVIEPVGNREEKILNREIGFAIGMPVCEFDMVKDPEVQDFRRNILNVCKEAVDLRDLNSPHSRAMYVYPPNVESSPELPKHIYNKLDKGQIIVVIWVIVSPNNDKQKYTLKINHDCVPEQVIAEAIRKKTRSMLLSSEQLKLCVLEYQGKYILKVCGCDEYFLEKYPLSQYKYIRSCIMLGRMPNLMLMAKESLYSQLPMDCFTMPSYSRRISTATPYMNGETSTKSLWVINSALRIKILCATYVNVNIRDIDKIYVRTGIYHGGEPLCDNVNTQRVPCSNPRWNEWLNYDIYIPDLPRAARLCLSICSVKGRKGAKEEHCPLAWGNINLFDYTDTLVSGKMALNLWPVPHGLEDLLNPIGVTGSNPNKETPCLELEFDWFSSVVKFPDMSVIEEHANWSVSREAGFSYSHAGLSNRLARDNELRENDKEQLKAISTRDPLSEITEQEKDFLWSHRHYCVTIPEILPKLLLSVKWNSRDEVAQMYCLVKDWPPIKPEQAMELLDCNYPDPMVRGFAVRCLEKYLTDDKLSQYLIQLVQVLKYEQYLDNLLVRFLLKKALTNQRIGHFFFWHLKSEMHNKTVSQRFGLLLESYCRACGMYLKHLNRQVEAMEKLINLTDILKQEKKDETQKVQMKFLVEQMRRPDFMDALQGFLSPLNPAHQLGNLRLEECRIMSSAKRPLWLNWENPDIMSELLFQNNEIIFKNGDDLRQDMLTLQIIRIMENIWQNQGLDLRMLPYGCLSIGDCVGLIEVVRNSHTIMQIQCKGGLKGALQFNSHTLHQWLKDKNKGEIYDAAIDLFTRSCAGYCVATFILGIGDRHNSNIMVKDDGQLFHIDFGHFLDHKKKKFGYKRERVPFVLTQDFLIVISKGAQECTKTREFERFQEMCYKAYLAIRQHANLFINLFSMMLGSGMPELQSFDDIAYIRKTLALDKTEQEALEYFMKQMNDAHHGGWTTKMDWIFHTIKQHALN
T3 sequence (P27986 whole entry partner): as the sequence (P27986 whole entry partner) above
T4 sequence (P48736 whole entry): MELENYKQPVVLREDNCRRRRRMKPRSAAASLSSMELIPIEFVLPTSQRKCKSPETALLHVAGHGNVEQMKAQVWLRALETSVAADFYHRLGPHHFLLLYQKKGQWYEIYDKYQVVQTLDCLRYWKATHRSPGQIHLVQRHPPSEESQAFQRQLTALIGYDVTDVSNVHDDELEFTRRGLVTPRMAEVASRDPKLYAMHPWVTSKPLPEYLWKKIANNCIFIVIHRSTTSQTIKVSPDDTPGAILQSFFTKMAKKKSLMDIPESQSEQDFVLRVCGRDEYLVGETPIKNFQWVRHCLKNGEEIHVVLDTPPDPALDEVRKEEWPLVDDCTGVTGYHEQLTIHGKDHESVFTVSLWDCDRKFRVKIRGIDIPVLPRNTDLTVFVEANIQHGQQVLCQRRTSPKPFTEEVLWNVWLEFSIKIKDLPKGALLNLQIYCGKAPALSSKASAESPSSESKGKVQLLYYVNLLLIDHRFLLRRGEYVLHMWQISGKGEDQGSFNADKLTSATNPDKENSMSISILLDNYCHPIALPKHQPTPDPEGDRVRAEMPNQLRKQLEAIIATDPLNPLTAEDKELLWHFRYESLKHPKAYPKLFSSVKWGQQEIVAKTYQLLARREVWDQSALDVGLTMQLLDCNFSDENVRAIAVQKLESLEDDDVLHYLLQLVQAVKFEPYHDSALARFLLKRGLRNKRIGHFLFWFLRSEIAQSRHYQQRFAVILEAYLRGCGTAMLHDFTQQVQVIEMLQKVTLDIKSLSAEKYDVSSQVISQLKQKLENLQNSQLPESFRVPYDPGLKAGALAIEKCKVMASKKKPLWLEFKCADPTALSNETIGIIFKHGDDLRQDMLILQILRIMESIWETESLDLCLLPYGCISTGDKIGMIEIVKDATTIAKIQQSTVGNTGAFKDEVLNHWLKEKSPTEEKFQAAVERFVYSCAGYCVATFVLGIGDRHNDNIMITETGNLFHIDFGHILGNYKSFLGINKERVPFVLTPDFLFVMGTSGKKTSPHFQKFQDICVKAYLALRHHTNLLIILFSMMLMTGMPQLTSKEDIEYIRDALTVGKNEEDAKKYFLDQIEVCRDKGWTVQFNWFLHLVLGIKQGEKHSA

For `O=S1(=O)CCN(Cc2cnc3oc4c(N5CCOCC5)nc(-c5cccc6[nH]ccc56)nc4c3c2)CC1` [Example A, 4-{[4-(1H-Indol-4-yl)-6-(morpholin-4-yl)-8-oxa-3,5,10-triazatricyclo[7.4.0.0^2,7]trideca-1(13),2(7),3,5,9,11-hexaen-12-yl]methyl]-1λ^6-thiomorpholine-1,1-dione], the pKi was not below 6.30 on PI3K p110β, not below 6.30 on PI3K p110δ, 5.00 to 6.00 at PI3K p110α and less than 5.00 on PI3K p110γ.

Regarding `Cc1cc2c(-c3nc(N4CCOCC4)c4oc5ncc(CN6CC[S+]([O-])CC6)cc5c4n3)cccc2[nH]1` [Example AG, 4-{[4-(2-methyl-1H-indol-4-yl)-6-(morpholin-4-yl)-8-oxa-3,5,10-triazatricyclo[7.4.0.0^2^,7]trideca-1(13),2(7),3,5,9,11-hexaen-12-yl]methyl}-1λ^4-thiomorpholin-1-one], the pKi on PI3K p110β was not below 6.30; at PI3K p110δ, not below 6.30; at PI3K p110α, 6.00 to 6.30; on PI3K p110γ, 5.00 to 6.00.

On to `[O-][S+]1CCN(Cc2cnc3oc4c(N5CCOCC5)nc(-c5cccc6[nH]ccc56)nc4c3c2)CC1` [Example AH, 4-{[4-(1H-indol-4-yl)-6-(morpholin-4-yl)-8-oxa-3,5,10-triazatricyclo[7.4.0.0^2^,7]trideca-1(13),2(7),3,5,9,11-hexaen-12-yl]methyl}-1λ^4-thiomorpholin-1-one], for which the pKi at PI3K p110β was not below 6.30; at PI3K p110δ, not below 6.30; on PI3K p110α it was 5.00 to 6.00; on PI3K p110γ, less than 5.00.

As to `COc1ccc2c(c1-c1nc(N3CCOCC3)c3oc4ncc(CN5CC[S+]([O-])CC5)cc4c3n1)CCN2` [Example AI, 4-{[4-(5-Methoxy-2,3-dihydro-1H-indol-4-yl)-6-(morpholin-4-yl)-8-oxa-3,5,10-triazatricyclo[7.4.0.0^2^,7]trideca-1(13),2(7),3,5,9,11-hexaen-12-yl]methyl}-1λ^4-thiomorpholin-1-one], the pKi on PI3K p110β was 5.00 to 6.00; on PI3K p110δ, not below 6.30; on PI3K p110α, less than 5.00; at PI3K p110γ it was less than 5.00.

On to `[O-][S+]1CCN(Cc2cnc3oc4c(N5CCOCC5)nc(-c5cccc6[nH]cc(F)c56)nc4c3c2)CC1` [Example AJ, 4-{[4-(3-fluoro-1H-indol-4-yl)-6-(morpholin-4-yl)-8-oxa-3,5,10-triazatricyclo[7.4.0.0^2^,7]trideca-1(13),2(7),3,5,9,11-hexaen-12-yl]methyl}-1λ^4-thiomorpholin-1-one], for which the pKi is 5.00 to 6.00 at PI3K p110β, not below 6.30 on PI3K p110δ, less than 5.00 at PI3K p110α and less than 5.00 at PI3K p110γ.

Turning to `[O-][S+]1CCN(Cc2cnc3sc4c(N5CCOCC5)nc(-c5cccc6[nH]ccc56)nc4c3c2)CC1` [Example AK, 4-{[4-(1H-Indol-4-yl)-6-(morpholin-4-yl)-8-thia-3,5,10-triazatricyclo[7.4.0.0^2^,7]trideca-1(9),2,4,6,10,12-hexaen-12-yl]methyl}-1λ^4-thiomorpholin-1-one], the pKi at PI3K p110β is 5.00 to 6.00; at PI3K p110δ, 5.00 to 6.00; at PI3K p110α, less than 5.00; at PI3K p110γ, less than 5.00.

As for `Cc1c[nH]c2cccc(-c3nc(N4CCOCC4)c4oc5ncc(CN6CC[S+]([O-])CC6)cc5c4n3)c12` [Example AL, 4-{[4-(3-Methyl-1H-indol-4-yl)-6-(morpholin-4-yl)-8-oxa-3,5,10-triazatricyclo[7.4.0.0^2^,7]trideca-1(13),2(7),3,5,9,11-hexaen-12-yl]methyl}-1λ^4-thiomorpholin-1-one], the pKi is less than 5.00 on PI3K p110β, 5.00 to 6.00 on PI3K p110δ, less than 5.00 on PI3K p110α and less than 5.00 at PI3K p110γ.

On to `[O-][S+]1CCN(Cc2cnc3oc4c(N5CCOCC5)nc(-c5cc(Cl)cc6[nH]ccc56)nc4c3c2)CC1` [Example AM, 4-{[4-(6-Chloro-1H-indol-4-yl)-6-(morpholin-4-yl)-8-oxa-3,5,10-triazatricyclo[7.4.0.0^2^,7]trideca-1(13),2(7),3,5,9,11-hexaen-12-yl]methyl}-1λ^4-thiomorpholin-1-one], for which the pKi at PI3K p110β was less than 5.00; at PI3K p110δ it was 5.00 to 6.00; at PI3K p110α, less than 5.00; on PI3K p110γ, less than 5.00.

With `N#Cc1c[nH]c2cccc(-c3nc(N4CCOCC4)c4oc5ncc(CN6CC[S+]([O-])CC6)cc5c4n3)c12` [Example AN, 4-[6-(morpholin-4-yl)-12-[(1-oxo-1λ^4-thiomorpholin-4-yl)methyl]-8-oxa-3,5,10-triazatricyclo[7.4.0.0^2,^7]trideca-1(13),2(7),3,5,9,11-hexaen-4-yl]-1H-indole-3-carbonitrile], the pKi on PI3K p110β, at PI3K p110δ, on PI3K p110α and on PI3K p110γ was less than 5.00 each time.

As to `CN(CCS(C)(=O)=O)Cc1cnc2oc3c(N4CCOCC4)nc(-c4cccc5[nH]ccc45)nc3c2c1` [Example C, {[4-(1H-Indol-4-yl)-6-(morpholin-4-yl)-8-oxa-3,5,10-triazatricyclo[7.4.0.0^2,7]trideca-1(13),2(7),3,5,9,11-hexaen-12-yl]methyl}(2-methanesulfonylethyl)methylamine], the negative-log Ki (pKi) at PI3K p110β was not below 6.30; on PI3K p110δ it was not below 6.30; at PI3K p110α it was not below 6.30; on PI3K p110γ it was 5.00 to 6.00.

As for `[O-][S+]1CCN(Cc2cnc3oc4c(N5CCOCC5)nc(-c5cc(F)cc6[nH]ccc56)nc4c3c2)CC1` [Example D], the pKi is not below 6.30 on PI3K p110β, not below 6.30 on PI3K p110δ, less than 5.00 at PI3K p110α and less than 5.00 at PI3K p110γ.

As for `[O-][S+]1CCN(Cc2cnc3oc4c(N5CCOCC5)nc(-c5c(F)ccc6[nH]ccc56)nc4c3c2)CC1` [Example E], the pKi on PI3K p110β is not below 6.30; at PI3K p110δ, not below 6.30; on PI3K p110α it was 5.00 to 6.00; at PI3K p110γ, 5.00 to 6.00.

On to `[O-][S+]1CCN(Cc2cnc3oc4c(N5CCOCC5)nc(-c5cc(C(F)(F)F)cc6[nH]ccc56)nc4c3c2)CC1` [Example F], for which the pKi on PI3K p110β, on PI3K p110δ, on PI3K p110α and on PI3K p110γ was less than 5.00 throughout.

On to `N=S1(=O)CCN(Cc2cnc3oc4c(N5CCOCC5)nc(-c5cccc6[nH]ccc56)nc4c3c2)CC1` [Example G], for which the pKi at PI3K p110β is not below 6.30; on PI3K p110δ, not below 6.30; at PI3K p110α, 6.00 to 6.30; at PI3K p110γ it was 5.00 to 6.00.

Take `C[C@H](c1cnc2oc3c(N4CCOCC4)nc(-c4cccc5[nH]ccc45)nc3c2c1)N1CCS(=O)(=O)CC1` [Example H, 4-[(1R)-1-[4-(1H-Indol-4-yl)-6-(morpholin-4-yl)-8-oxa-3,5,10-triazatricyclo[7.4.0.0^2,7]trideca-1(13),2,4,6,9,11-hexaen-12-yl]ethyl]-1λ^6-thiomorpholine-1,1-dione]: the pKi at PI3K p110β is not below 6.30; at PI3K p110δ, not below 6.30; at PI3K p110α, 6.00 to 6.30; on PI3K p110γ, 5.00 to 6.00.

With `C[C@@H](c1cnc2oc3c(N4CCOCC4)nc(-c4cccc5[nH]ccc45)nc3c2c1)N1CCS(=O)(=O)CC1` [Example I, 4-[(1S)-1-[4-(1H-Indol-4-yl)-6-(morpholin-4-yl)-8-oxa-3,5,10-triazatricyclo[7.4.0.0^2,7]trideca-1(13),2,4,6,9,11-hexaen-12-yl]ethyl]-1λ^6-thiomorpholine-1,1-dione], the pKi at PI3K p110β was not below 6.30; on PI3K p110δ, not below 6.30; on PI3K p110α it was not below 6.30; on PI3K p110γ it was less than 5.00.
